Results reported in article PMC8294059, “Identification and Immune Assessment of T Cell Epitopes in Five Plasmodium falciparum Blood Stage Antigens to Facilitate Vaccine Candidate Selection and Optimization” (Frontiers in Immunology, 2021).
Where a SMILES comes first, the peptide text is derived from it.

Key:
[1] = target: HLA-A*2402 (Homo sapiens, UniProt P04439, D101N/D140Y/D185E/E176V/E190D/F33S/G103R/G107R/I119L/I121M/I306V/K335N/L105A/L180Q/L300P/N151K/N90K/Q86E/Q94H/R106L/R138H/R89G/T104I/T345S/V100E/W191G/Y123F); assay: In vitro class I HLA binding assay (fluorescence polarization competition); conditions: allele A*2402; cell-free competition, fluorescence polarization at 72 hours; Non-binder = no dose-dependent inhibition; read-out: IC50
Outline: (§1)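 Cell-free competition assay: HLA heat-treated 53°C for 15 min to strip endogenous peptides, then mixed with fluorescent high-affinity control peptide and test peptides for 72 h to equilibrium. Displacement read by fluorescence polarization as percent inhibition; IC50 derived from a concentration range.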

[2] = target: HLA-A*0301 (Homo sapiens, UniProt P04439); assay: biochemical; format: binding; conditions: allele A*0301, fluorescence polarization competition; for IC50: read-out: IC50 (nM), in vitro HLA binding affinity
Outline: as §1

[3] = target: HLA-A*0101 (Homo sapiens, UniProt P04439, A114D/A174V/A182V/D101N/D185E/E176A/E190D/L180R/Q94H/R68K/S129P/T187R/V100A/V91M/W191G); assay: biochemical; format: binding; conditions: allele A*0101, fluorescence polarization competition; for IC50: read-out: IC50 (nM), in vitro HLA binding affinity
Outline: as §1

[4] = target: HLA-A*0201 (Homo sapiens, UniProt P04439, D140Y/D185E/D98H/E176V/E277Q/G131W/G231S/I119V/I121R/I166T/I218V/L300P/L318F/N151K/N90K/P208A/P217A/Q86G/Q94H/R138H/R169H/T345S); assay: In vitro class I HLA binding assay (fluorescence polarization competition); conditions: allele A*0201; fluorescence polarization competition; read-out: IC50 (nM), in vitro HLA binding affinity
Outline: as §1

| Compound | IC50 (nM), in vitro HLA binding affinity [2] | IC50 [2] | also measured |
| --- | --- | --- | --- |
| CC(C)C[C@H](NC(=O)[C@H](CCCCN)NC(=O)[C@H](CCCCN)NC(=O)[C@H](CC(=O)O)NC(=O)[C@H](Cc1ccc(O)cc1)NC(=O)[C@H](CC(C)C)NC(=O)[C@H](CC(N)=O)NC(=O)[C@H](Cc1ccc(O)cc1)NC(=O)[C@@H](N)CCCNC(=N)N)C(=O)O [EBA175_1316] (H-RYNLYDKKL-OH) |  |  | IC50 [1]: 0.172 µM |
| C[C@@H](O)[C@H](NC(=O)[C@H](Cc1ccccc1)NC(=O)[C@H](Cc1ccc(O)cc1)NC(=O)[C@@H](N)CO)C(=O)N[C@@H](Cc1ccc(O)cc1)C(=O)N[C@@H](CC(=O)O)C(=O)N[C@@H](CO)C(=O)N[C@@H](CCC(=O)O)C(=O)N[C@@H](CCC(=O)O)C(=O)N[C@@H](Cc1ccc(O)cc1)C(=O)O [EBA175_1390] (H-SYFTYDSEEY-OH) |  |  | IC50 [1]: 22.3 µM |
| CC(C)C[C@H](NC(=O)[C@H](Cc1c[nH]cn1)NC(=O)[C@H](CCCCN)NC(=O)[C@H](Cc1ccc(O)cc1)NC(=O)[C@H](Cc1ccc(O)cc1)NC(=O)[C@H](CC(=O)O)NC(=O)[C@H](CC(C)C)NC(=O)[C@@H](N)Cc1ccccc1)C(=O)N[C@@H](CO)C(=O)N[C@@H](Cc1ccc(O)cc1)C(=O)O [RH5_181] (H-FLDYYKHLSY-OH) | Non-Binder |  | IC50 [3]: 646 nM |
| CC[C@H](C)[C@H](NC(=O)[C@H](CO)NC(=O)[C@@H](N)CC(N)=O)C(=O)N[C@@H](Cc1ccc(O)cc1)C(=O)N[C@@H](Cc1c[nH]cn1)C(=O)N[C@@H](CCCCN)C(=O)N[C@@H](CO)C(=O)N[C@@H](CO)C(=O)N[C@H](C(=O)N[C@@H](Cc1ccc(O)cc1)C(=O)O)[C@@H](C)O [RH5_191] (H-NSIYHKSSTY-OH) |  | 101000 nM | IC50 (nM), in vitro HLA binding affinity [3]: Non-Binder |
| CC[C@H](C)[C@H](NC(=O)[C@@H](N)CO)C(=O)N[C@@H](Cc1ccc(O)cc1)C(=O)N[C@@H](Cc1c[nH]cn1)C(=O)N[C@@H](CCCCN)C(=O)N[C@@H](CO)C(=O)N[C@@H](CO)C(=O)N[C@H](C(=O)N[C@@H](Cc1ccc(O)cc1)C(=O)O)[C@@H](C)O [RH5_192] (H-SIYHKSSTY-OH) |  | 5930 nM | IC50 (nM), in vitro HLA binding affinity [3]: Non-Binder |
| CSCC[C@H](NC(=O)[C@H](CCSC)NC(=O)[C@@H](N)CCCCN)C(=O)N[C@@H](CC(=O)O)C(=O)N[C@@H](CCC(=O)O)C(=O)N[C@@H](Cc1ccc(O)cc1)C(=O)N[C@@H](CC(N)=O)C(=O)N[C@H](C(=O)N[C@@H](CCCCN)C(=O)N[C@@H](CCCCN)C(=O)O)[C@@H](C)O [RH5_302] (H-KMMDEYNTKK-OH) |  | 8480 nM | IC50 [4]: 511000 nM |
| CC[C@H](C)[C@H](NC(=O)[C@H](CC(=O)O)NC(=O)[C@@H]1CCCN1C(=O)[C@H](CC(C)C)NC(=O)[C@@H](NC(=O)[C@@H](N)CO)[C@@H](C)CC)C(=O)N[C@@H](CC(N)=O)C(=O)N[C@@H](CCCCN)C(=O)N[C@@H](CO)C(=O)N[C@@H](CCCCN)C(=O)O [RIPR_0500] (H-SILPDINKSK-OH) |  | 12700 nM |  |
| C[C@@H](O)[C@H](NC(=O)[C@@H](N)CO)C(=O)N[C@@H](CS)C(=O)N[C@@H](Cc1ccc(O)cc1)C(=O)NCC(=O)N[C@@H](CC(N)=O)C(=O)N[C@@H](CCCNC(=N)N)C(=O)N[C@@H](Cc1ccccc1)C(=O)N[C@@H](CC(N)=O)C(=O)N[C@@H](Cc1ccc(O)cc1)C(=O)O [RIPR_0648] (H-STCYGNRFNY-OH) | Non-binder |  | IC50 [3]: 54000 nM |
| CC(C)[C@H](NC(=O)[C@@H](N)CS)C(=O)N[C@@H](CS)C(=O)N[C@H](C(=O)N[C@@H](Cc1ccc(O)cc1)C(=O)N[C@@H](CC(N)=O)C(=O)N[C@@H](Cc1ccc(O)cc1)C(=O)N[C@@H](Cc1ccc(O)cc1)C(=O)N[C@@H](CCCCN)C(=O)N[C@@H](CCCCN)C(=O)O)[C@@H](C)O [RIPR_0924] (H-CVCTYNYYKK-OH) |  | 14400 nM |  |
| DLMNRTFKK [RH5_294] | Non-Binder |  |  |
| LSVKSKNLNK [RH5_369] | Non-Binder |  |  |
| NVNFLQYHFK [RH5_141] | Non-Binder |  |  |
| PSHNSFIKK [RH5_101] | Non-Binder |  |  |
| RTFKKMMDEY [RH5_298] | Non-Binder |  | IC50 (nM), in vitro HLA binding affinity [3]: Non-Binder |
